Results from patent publication US6517871B1, “Bioenhanced formulations comprising eprosartan in oral solid dosage form” (SmithKline Beecham Corporation, priority 1998, dated 2003).
Counter-ions that a name gives are not always drawn.

Key:
[1] = clinical; settings: human, in vivo
Text: Eprosartan is an amphiphilic molecule containing two acidic (allylic carboxylic acid and phenylic carboxylic acid) and one basic (imidazole) functional groups. At lower pH (below 2) the imidazole nitrogen will be protonated (form ii). As the pH increases, the allylic carboxylic group will be deprotonated (form iii). […] As the pH increases further, the phenylic carboxylic group will be depronated (form iv) followed by the deprotonation of the protonated imidazole group (form v). […] According to the pH-partitioning theory of absorption, only the unionized species (form ii) or the ion-neutral species (form iii) will be absorbed by passive diffusion. […] The time to maximum concentration is between 1 to 2.5 hours in fasted state and 2.5-4 hours in fed state. […] Additionally, since the commercial form of the drug is as its mesylate, which becomes dihydrated during the formulation process, high dose tablets (e.g., 600 mg tablets weigh 1,200.0 mg) may be difficult to swallow.

[2] = pH-solubility profiles (FIG. 2); format: physicochemical; settings: pH >4.0 to 5.5, where the enteric coat starts to release

## CCCCc1ncc(/C=C(\Cc2cccs2)C(=O)O)n1Cc1ccc(C(=O)O)cc1 [eprosartan mesylate, (E)-α-[2-n-Butyl-1-[(4-carboxyphenyl)methyl]-1H-imidazol-5-yl]methylene-2-thiophenepropionic acid monomethanesulfonate]
[1]
  bioavailability: ~13%

## CCCCc1ncc(/C=C(\Cc2cccs2)C(=O)O)n1Cc1ccc(C(=O)O)cc1 [eprosartan, (E)-α-[2-n-butyl-1-[(4-carboxyphenyl)methyl]-1H-imidazol-5-yl]methylene-2-thiophenepropionic acid]
[1]
  mean absolute bioavailability: approximately 13%
  time to maximum concentration: 1 to 2.5 h
[2]
  drug solubility at initiation pHs: negligible
